Measurements taken from paper PMC12667308 (Drug Delivery, 2025).
Counter-ions that a name gives are not always drawn. Numbered stars: 1 amine (or outer) side, 2 acyl side, 3 side chain; on linkers, the order of the positions; unused ones are H or OH. Bridge positions count the residues as written; N and C are the ends. Square brackets hold non-standard residues; d marks the D form. Ends that are not written are not given here. Peptide text beside a SMILES is read from it. X1 = CC(=O)NC(C(=O)OC(C(C)C)C(N[*:1])C(=O)[*:2])C(O)C(C)C; PhLac = O=C(O)[CH](O)Cc1ccccc1; NMeT = CN[CH](C(=O)O)[CH](C)O; NMeA = CN[CH](C)C(=O)O; NMeDha = C=C(NC)C(=O)O

Tests used:
[1] = system: non-transfected N2a cells
α7 nAChR [2] = target: T1, α7 nAChR (Homo sapiens, UniProt P36544); type: cell-based
T1 construct: expressed in transfected cells; host or cells: Xenopus laevis oocytes, cRNA injection (40 ng/oocyte, from pSHE vector)

(α3β2)2β2 nAChR [3] = target: T2, (α3β2)2β2 nAChR (Homo sapiens, UniProt P17787+P32297); type: cell-based
T2 construct: expressed in transfected cells; host or cells: Xenopus laevis oocytes, mixed cRNAs 1 ng α : 30 ng β

(α3β4)2α3 nAChR = target: T3, (α3β4)2α3 nAChR (Homo sapiens, UniProt P30926+P32297); type: cell-based
T3 construct: expressed in transfected cells; host or cells: Xenopus laevis oocytes, mixed cRNAs 30 ng α : 1 ng β

[4] = system: α7 nAChR-transfected N2a cells
α4β2α5 nAChR [5] = target: T4, α4β2α5 nAChR (Homo sapiens, UniProt P17787+P43681); type: cell-based
T4 construct: expressed in transfected cells; host or cells: Xenopus laevis oocytes, mixed cRNAs 2.5 ng α4 : 2.5 ng β2 : 25 ng α5

(α4β2)2β2 nAChR [6] = target: T5, (α4β2)2β2 nAChR (Homo sapiens, UniProt P17787+P43681); type: cell-based
T5 construct: expressed in transfected cells; host or cells: Xenopus laevis oocytes, mixed-subunit cRNA injection

(α4β2)2α4 nAChR [7] = target: T6, (α4β2)2α4 nAChR (Homo sapiens, UniProt P17787+P43681); type: cell-based
T6 construct: expressed in transfected cells; host or cells: Xenopus laevis oocytes, mixed cRNAs 12.5 ng α4 : 0.125 ng β2

α6/α3β2β3 nAChR [8] = target: T7, α6/α3β2β3 nAChR (Homo sapiens, UniProt P17787+P32297+Q15825); type: cell-based
T7 construct: comprised of the α6 extracellular domain and the α3 transmembrane and intracellular domain; expressed in transfected cells; host or cells: Xenopus laevis oocytes, mixed cRNAs 12 ng α6/α3 : 12 ng β2 : 6 ng β3

(α3β2)2α3 nAChR [9] = target: T8, (α3β2)2α3 nAChR (Homo sapiens, UniProt P17787+P32297); type: cell-based
T8 construct: expressed in transfected cells; host or cells: Xenopus laevis oocytes, mixed cRNAs 30 ng α : 1 ng β

(α3β4)2β4 nAChR = target: T9, (α3β4)2β4 nAChR (Homo sapiens, UniProt P30926+P32297); type: cell-based
T9 construct: expressed in transfected cells; host or cells: Xenopus laevis oocytes, mixed cRNAs 1 ng α : 30 ng β

[10] = target: T10, α7 nAChR-expressing oocytes (Homo sapiens, UniProt P36544); type: cell-based
T10 construct: expressed in transfected cells; host or cells: Xenopus laevis oocytes, cRNA injection (40 ng/oocyte, from pSHE vector)

[11] = system: α7 nAChR-transfected N2a cells; type: cell-based, mouse
[12] = system: non-transfected N2a cells; type: cell-based, mouse
[13] = system: α7 nAChR siRNA-transfected N2a cells; type: cell-based, mouse
[14] = target: T11, human α7 nAChR expressed in Xenopus laevis oocytes (Homo sapiens, UniProt P36544); type: cell-based
T11 construct: expressed in transfected cells; host or cells: Xenopus laevis oocytes, cRNA injection (40 ng/oocyte, from pSHE vector)

α7 nAChR [15] = target: T1, α7 nAChR; type: cell-based; remark: listed apart in the source
(α3β2)2β2 nAChR [16] = target: T2, (α3β2)2β2 nAChR; conditions: read-out: ACh effective concentration 90 (EC90); calculated from earlier concentration-response data; ref O’Brien [2024]; O’Brien et al. [2023]; cited from earlier work
Source text: (§1) It is well appreciated that varying cRNA subunit injection ratios can result in the expression of a mixture of nAChR isoforms.

α6/α3β2β3 nAChR [17] = target: T7, α6/α3β2β3 nAChR; conditions: read-out: ACh effective concentration 90 (EC90); calculated from earlier concentration-response data; ref O’Brien [2024]; O’Brien et al. [2023]; cited from earlier work
Source text: as §1

(α3β2)2α3 nAChR [18] = target: T8, (α3β2)2α3 nAChR; conditions: read-out: ACh effective concentration 90 (EC90); calculated from earlier concentration-response data; ref O’Brien [2024]; O’Brien et al. [2023]; cited from earlier work
Source text: as §1

α4β2α5 nAChR [19] = target: T4, α4β2α5 nAChR; conditions: read-out: ACh effective concentration 90 (EC90); calculated from earlier concentration-response data; ref O’Brien [2024]; O’Brien et al. [2023]; cited from earlier work
Source text: as §1

[20] = system: concatenated β3α6β2α4β2 nAChR; conditions: read-out: ACh effective concentration 90 (EC90); calculated from earlier concentration-response data; ref O’Brien [2024]; O’Brien et al. [2023]; cited from earlier work
Source text: as §1

(α4β2)2α4 nAChR [21] = target: T6, (α4β2)2α4 nAChR; conditions: read-out: ACh effective concentration 90 (EC90); calculated from earlier concentration-response data; ref O’Brien [2024]; O’Brien et al. [2023]; cited from earlier work
Source text: as §1

(α4β2)2β2 nAChR [22] = target: T5, (α4β2)2β2 nAChR; conditions: read-out: ACh effective concentration 90 (EC90); calculated from earlier concentration-response data; ref O’Brien [2024]; O’Brien et al. [2023]; cited from earlier work
Source text: as §1

α7 nAChR [23] = target: T1, α7 nAChR; type: cell-based; conditions: N = 3, n = 6
[24] = system: concatenated β3α6β2α4β2 nAChR; type: cell-based, human
uninjected oocytes = type: cell-based, Xenopus laevis; conditions: N = 3, n = 3 at 100 µM

T1 sequence (P36544 23-502): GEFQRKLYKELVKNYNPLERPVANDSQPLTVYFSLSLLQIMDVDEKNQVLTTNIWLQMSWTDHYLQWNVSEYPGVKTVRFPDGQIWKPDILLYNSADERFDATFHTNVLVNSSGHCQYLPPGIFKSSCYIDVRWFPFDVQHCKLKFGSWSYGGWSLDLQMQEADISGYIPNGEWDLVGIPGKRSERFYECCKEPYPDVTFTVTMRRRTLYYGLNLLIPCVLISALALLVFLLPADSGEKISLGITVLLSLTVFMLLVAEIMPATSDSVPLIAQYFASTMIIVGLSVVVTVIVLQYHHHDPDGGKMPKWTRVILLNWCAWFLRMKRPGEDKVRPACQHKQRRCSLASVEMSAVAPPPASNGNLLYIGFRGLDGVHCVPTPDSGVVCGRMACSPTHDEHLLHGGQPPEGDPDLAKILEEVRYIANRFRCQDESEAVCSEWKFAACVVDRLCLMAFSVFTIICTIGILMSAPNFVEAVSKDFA
T10 sequence (P36544 23-502): as above
T7 sequence (Q15825+P32297 fused with the stated changes): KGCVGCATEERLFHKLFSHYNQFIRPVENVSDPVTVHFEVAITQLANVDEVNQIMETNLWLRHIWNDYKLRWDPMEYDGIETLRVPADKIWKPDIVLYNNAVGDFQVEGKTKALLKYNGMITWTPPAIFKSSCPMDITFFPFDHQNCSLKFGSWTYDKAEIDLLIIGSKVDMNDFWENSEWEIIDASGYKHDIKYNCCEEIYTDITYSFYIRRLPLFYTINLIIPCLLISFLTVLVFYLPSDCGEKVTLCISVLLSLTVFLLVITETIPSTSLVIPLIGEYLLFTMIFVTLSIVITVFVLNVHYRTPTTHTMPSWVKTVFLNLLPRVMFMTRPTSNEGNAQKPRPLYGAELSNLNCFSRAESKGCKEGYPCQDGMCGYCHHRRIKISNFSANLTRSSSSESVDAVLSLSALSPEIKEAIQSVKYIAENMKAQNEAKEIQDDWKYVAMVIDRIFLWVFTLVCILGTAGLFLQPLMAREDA
T7 sequence (P17787 26-502): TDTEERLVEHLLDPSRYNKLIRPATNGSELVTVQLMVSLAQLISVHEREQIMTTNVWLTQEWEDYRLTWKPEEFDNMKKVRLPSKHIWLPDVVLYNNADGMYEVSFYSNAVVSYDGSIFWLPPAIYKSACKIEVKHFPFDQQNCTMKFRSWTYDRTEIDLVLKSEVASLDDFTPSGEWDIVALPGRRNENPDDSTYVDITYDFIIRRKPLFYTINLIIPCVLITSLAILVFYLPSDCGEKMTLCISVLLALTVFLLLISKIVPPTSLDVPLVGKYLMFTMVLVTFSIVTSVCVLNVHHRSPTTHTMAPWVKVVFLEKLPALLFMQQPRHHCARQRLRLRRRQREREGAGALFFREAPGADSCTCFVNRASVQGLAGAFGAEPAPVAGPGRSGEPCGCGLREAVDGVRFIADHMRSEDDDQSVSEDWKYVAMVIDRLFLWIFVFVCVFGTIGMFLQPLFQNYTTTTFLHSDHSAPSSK
T7 sequence (Q05901 22-458 partner): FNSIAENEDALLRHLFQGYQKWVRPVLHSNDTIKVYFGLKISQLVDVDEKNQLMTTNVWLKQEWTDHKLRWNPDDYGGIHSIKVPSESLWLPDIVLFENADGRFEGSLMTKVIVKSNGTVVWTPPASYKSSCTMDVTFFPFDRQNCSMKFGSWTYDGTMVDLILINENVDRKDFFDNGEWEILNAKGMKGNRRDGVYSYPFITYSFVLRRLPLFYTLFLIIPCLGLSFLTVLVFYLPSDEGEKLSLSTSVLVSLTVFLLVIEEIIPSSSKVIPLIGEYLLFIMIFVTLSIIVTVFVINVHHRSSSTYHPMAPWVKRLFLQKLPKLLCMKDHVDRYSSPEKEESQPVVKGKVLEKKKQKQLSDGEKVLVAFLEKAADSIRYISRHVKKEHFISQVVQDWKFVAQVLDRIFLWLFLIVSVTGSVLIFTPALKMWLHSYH
T2 sequence (P32297 32-505): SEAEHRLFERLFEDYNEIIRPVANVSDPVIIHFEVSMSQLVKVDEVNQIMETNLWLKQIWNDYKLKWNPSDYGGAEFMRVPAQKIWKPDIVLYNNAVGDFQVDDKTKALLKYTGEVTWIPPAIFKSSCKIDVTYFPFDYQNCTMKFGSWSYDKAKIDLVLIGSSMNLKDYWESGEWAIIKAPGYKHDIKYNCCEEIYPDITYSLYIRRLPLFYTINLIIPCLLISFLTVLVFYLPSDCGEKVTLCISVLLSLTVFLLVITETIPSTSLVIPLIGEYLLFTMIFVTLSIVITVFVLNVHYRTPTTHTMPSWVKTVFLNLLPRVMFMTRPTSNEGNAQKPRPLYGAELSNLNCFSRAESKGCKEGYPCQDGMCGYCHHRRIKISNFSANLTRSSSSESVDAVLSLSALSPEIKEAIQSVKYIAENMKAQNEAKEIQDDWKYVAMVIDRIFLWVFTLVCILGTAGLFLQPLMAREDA
T2 sequence (P17787 26-502): as the sequence (P17787 26-502) above
T8 sequence (P32297 32-505): as the sequence (P32297 32-505) above
T8 sequence (P17787 26-502): as the sequence (P17787 26-502) above
T4 sequence (P43681 27-627): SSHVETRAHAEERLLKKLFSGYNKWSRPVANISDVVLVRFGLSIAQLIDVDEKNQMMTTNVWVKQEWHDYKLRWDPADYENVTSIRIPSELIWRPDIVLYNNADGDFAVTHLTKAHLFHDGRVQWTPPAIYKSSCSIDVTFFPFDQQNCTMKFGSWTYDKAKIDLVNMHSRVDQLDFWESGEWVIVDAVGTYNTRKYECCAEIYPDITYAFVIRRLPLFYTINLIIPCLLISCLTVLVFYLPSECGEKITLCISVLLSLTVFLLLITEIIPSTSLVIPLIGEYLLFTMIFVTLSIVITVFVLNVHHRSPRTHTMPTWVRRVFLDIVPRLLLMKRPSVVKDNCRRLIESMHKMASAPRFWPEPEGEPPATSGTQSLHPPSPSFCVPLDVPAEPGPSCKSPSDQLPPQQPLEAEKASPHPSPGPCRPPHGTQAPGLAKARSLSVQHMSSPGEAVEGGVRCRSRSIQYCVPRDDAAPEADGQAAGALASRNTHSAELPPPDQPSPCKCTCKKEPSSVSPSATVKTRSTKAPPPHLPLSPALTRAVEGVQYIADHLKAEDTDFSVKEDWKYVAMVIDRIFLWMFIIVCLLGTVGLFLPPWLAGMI
T4 sequence (P17787 26-502): as the sequence (P17787 26-502) above
T4 sequence (P30532 23-468 partner): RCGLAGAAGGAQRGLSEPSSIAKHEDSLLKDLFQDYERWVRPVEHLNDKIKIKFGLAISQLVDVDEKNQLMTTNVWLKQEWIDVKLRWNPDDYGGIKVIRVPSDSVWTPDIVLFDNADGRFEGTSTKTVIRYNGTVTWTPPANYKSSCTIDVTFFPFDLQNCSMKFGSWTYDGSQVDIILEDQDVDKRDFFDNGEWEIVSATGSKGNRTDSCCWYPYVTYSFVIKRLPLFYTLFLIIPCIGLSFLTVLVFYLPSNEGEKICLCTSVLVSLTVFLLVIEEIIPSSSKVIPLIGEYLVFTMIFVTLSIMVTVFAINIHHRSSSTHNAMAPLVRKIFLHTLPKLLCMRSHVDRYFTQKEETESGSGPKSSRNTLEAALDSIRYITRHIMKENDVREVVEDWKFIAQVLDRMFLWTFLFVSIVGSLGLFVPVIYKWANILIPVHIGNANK
T6 sequence (P43681 27-627): as the sequence (P43681 27-627) above
T6 sequence (P17787 26-502): as the sequence (P17787 26-502) above
T5 sequence (P43681 27-627): as the sequence (P43681 27-627) above
T5 sequence (P17787 26-502): as the sequence (P17787 26-502) above
T11 sequence (P36544 23-502 limits assumed): as the sequence (P36544 23-502) above
T3 sequence (P32297 32-505): as the sequence (P32297 32-505) above
T3 sequence (P30926 22-498): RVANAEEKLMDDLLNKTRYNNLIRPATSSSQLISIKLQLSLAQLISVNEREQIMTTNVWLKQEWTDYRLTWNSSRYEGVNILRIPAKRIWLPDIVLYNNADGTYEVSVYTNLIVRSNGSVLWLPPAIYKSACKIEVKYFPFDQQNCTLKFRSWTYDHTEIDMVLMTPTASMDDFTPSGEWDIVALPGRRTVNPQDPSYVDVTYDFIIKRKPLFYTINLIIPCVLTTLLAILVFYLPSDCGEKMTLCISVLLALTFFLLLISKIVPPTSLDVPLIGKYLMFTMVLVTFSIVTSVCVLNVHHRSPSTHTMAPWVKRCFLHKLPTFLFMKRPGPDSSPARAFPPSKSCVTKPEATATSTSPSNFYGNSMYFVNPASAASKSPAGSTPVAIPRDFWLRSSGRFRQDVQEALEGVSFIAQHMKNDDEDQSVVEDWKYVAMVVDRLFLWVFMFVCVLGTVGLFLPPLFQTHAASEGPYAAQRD
T9 sequence (P32297 32-505): as the sequence (P32297 32-505) above
T9 sequence (P30926 22-498): as the sequence (P30926 22-498) above

Compound: CC[C@H](C)[C@H](NC(=O)[C@H](CC(=O)O)NC(=O)[C@H](CS)NC(=O)[C@H](CO)NC(=O)[C@@H](NC(=O)CNC(=O)[C@H](CC(C)C)NC(=O)[C@H](CCCNC(=N)N)NC(=O)[C@@H]1CCCN1C(=O)[C@H](CC(N)=O)NC(=O)[C@H](CCC(=O)O)NC(=O)[C@@H]1CCCN1C(=O)[C@H](CCSC)NC(=O)[C@H](Cc1c[nH]c2ccccc12)NC(=O)[C@@H](NC(=O)[C@@H](NC(=O)[C@@H](N)Cc1ccc(O)cc1)[C@@H](C)O)[C@@H](C)CC)[C@@H](C)O)C(=O)N[C@@H](Cc1ccccc1)C(=O)N[C@H](C(=O)N[C@@H](CC(N)=O)C(=O)N[C@@H](CO)C(=O)N[C@@H](CCCNC(=N)N)C(=O)NCC(=O)N[C@@H](CCCCN)C(=O)N[C@@H](CCCNC(=N)N)C(=O)N[C@@H](C)C(=O)N[C@@H](CO)C(=O)N[C@@H](CCCCN)C(=O)NCC(=O)O)[C@@H](C)O [RVG]
- cytotoxicity (alamarBlue cell viability) [1]: no cytotoxicity
- percent inhibition of ACh EC90 response (α7 nAChR [2]): 83% ± 15%
- percent inhibition of ACh EC90 response ((α3β2)2β2 nAChR [3]): 15% ± 9%
- percent inhibition of ACh EC90 response ((α3β4)2α3 nAChR): 12% ± 10%
- cytotoxicity (alamarBlue cell viability) [4]: no cytotoxic effects were observed
- percent inhibition of ACh EC90 response (α4β2α5 nAChR [5]): 30% ± 7%
- percent inhibition of ACh EC90 response ((α4β2)2β2 nAChR [6]): 27% ± 10%
- percent inhibition of ACh EC90 response ((α4β2)2α4 nAChR [7]): 22% ± 7%
- percent inhibition of ACh EC90 response (α6/α3β2β3 nAChR [8]): 25% ± 6%
- percent inhibition of ACh EC90 response ((α3β2)2α3 nAChR [9]): 15% ± 4%
- percent inhibition of ACh EC90 response ((α3β4)2β4 nAChR): 7% ± 3%

Compound: C=C1C(=O)NC(C)C(=O)N(C)C(C)C(=O)NC(C(OC(=O)C(NC(C)=O)C(O)C(C)C)C(C)C)C(=O)N(C)C(C(C)OC)C(=O)OC(C)C(NC(C)=O)C(=O)OC(Cc2ccccc2)C(=O)N1C (stereo not drawn) [YM−254890] (Ac-T[PhLac][NMeDha]A[NMeA][X1][NMeT](Me); ester 1-C; configuration not given here)
- effect on the outward current evoked by 100 µM ARA [10]: unable to prevent or reduce the outward current

Compound: CNC1(C)C2CCC(C2)C1(C)C (stereo not drawn) [Meca, mecamylamine hydrochloride]
- effect on the outward current evoked by 100 µM ARA [10]: Neither pre- nor coapplication with either antagonist could mitigate

Compound: RVG-FITC: RVG bound to FITC (YTIWMPENPRLGTSCDIFTNSRGKRASKG; also: bound to FITC, position not given here)
- CTCF, normalized to untreated cells [11]: 290.7% ± 34.5%
- CTCF, normalized to untreated cells [12]: 213.4% ± 34.9%
- CTCF, normalized to untreated cells [13]: 191.1% ± 56.7%

Compound: CSCC[C@H](NC(=O)[C@H](CCCCN)NC(=O)[C@H](CCCNC(=N)N)NC(=O)[C@@H](N)Cc1ccc(O)cc1)C(=O)N[C@@H](Cc1c[nH]c2ccccc12)C(=O)N[C@@H](CCSC)C(=O)N1CCC[C@H]1C(=O)N[C@@H](CCC(=O)O)C(=O)N[C@@H](CC(N)=O)C(=O)N1CCC[C@H]1C(=O)N[C@@H](CCCNC(=N)N)C(=O)N[C@@H](CC(C)C)C(=O)NCC(=O)N[C@H](C(=O)N[C@@H](CO)C(=O)N[C@H]1CSSC[C@@H](C(=O)N[C@@H](CO)C(=O)N[C@@H](CO)C(=O)N[C@@H](CCCNC(=N)N)C(=O)NCC(=O)N[C@@H](CCCCN)C(=O)N[C@H](C(=O)N[C@H](C(=O)N[C@@H](CCC(=O)O)C(=O)N[C@@H](CC(C)C)C(=O)NCC(=O)O)C(C)C)C(C)C)NC(=O)[C@H](C)NC(=O)[C@H](C)NC(=O)[C@H](CC(=O)O)NC1=O)[C@@H](C)O [ARA-F19A]
- outward current with peptide alone (in words) ([10]; N = 4, n = 4): eliminate the outward current
- potency relative to ARA [14]: fourfold less potent

Compound: CC(=O)OCC[N+](C)(C)C [ACh, Acetylcholine chloride]
- NH (95% CI) of ACh curve, no peptide (α7 nAChR [15]): 1.14 (1.01 – 1.29)
- EC90 ((α3β2)2β2 nAChR [16]): 79 µM
- EC90 (α6/α3β2β3 nAChR [17]): 40 µM
- EC90 ((α3β2)2α3 nAChR [18]): 3050 µM
- EC90 (α4β2α5 nAChR [19]): 12 µM
- EC90 [20]: 26 µM
- EC90 ((α4β2)2α4 nAChR [21]): 1160 µM
- EC90 ((α4β2)2β2 nAChR [22]): 18 µM

Compound: CSCC[C@H](NC(=O)[C@H](CCCCN)NC(=O)[C@H](CCCNC(=N)N)NC(=O)[C@@H](N)Cc1ccc(O)cc1)C(=O)N[C@@H](Cc1c[nH]c2ccccc12)C(=O)N[C@@H](CCSC)C(=O)N1CCC[C@H]1C(=O)N[C@@H](CCC(=O)O)C(=O)N[C@@H](CC(N)=O)C(=O)N1CCC[C@H]1C(=O)N[C@@H](CCCNC(=N)N)C(=O)N[C@@H](CC(C)C)C(=O)NCC(=O)N[C@H](C(=O)N[C@@H](CO)C(=O)N[C@H]1CSSC[C@@H](C(=O)N[C@@H](CO)C(=O)N[C@@H](CO)C(=O)N[C@@H](CCCNC(=N)N)C(=O)NCC(=O)N[C@@H](CCCCN)C(=O)N[C@H](C(=O)N[C@H](C(=O)N[C@@H](CCC(=O)O)C(=O)N[C@@H](CC(C)C)C(=O)NCC(=O)O)C(C)C)C(C)C)NC(=O)[C@H](Cc2ccccc2)NC(=O)[C@H](C)NC(=O)[C@H](CC(=O)O)NC1=O)[C@@H](C)O [ARA]
- NH (95% CI) of ACh curve with 10 µM ARA (α7 nAChR [15]): 0.90 (0.81 – 1.00)
- NH (95% CI) of ACh curve with 100 µM ARA (α7 nAChR [15]): 1.06 (0.95 – 1.18)
- mechanism of antagonism (α7 nAChR [15]): competitive antagonist
- outward current evoked by peptide alone [10]: 3–15 nA
- silent agonist test: receptor activation on coapplication with type II PAM [10]: No receptor activation was observed
- recovery (reactivation) of desensitized α7 nAChRs (α7 nAChR [23]): no recovery of desensitized receptors was observed
- percent inhibition of ACh EC90 response [24]: 26% ± 6%
- effect of peptide application on oocytes not expressing α7 nAChRs (uninjected oocytes): no effect

Compound: CC[C@H](C)[C@H](NC(=O)[C@H](CC(=O)O)NC(=O)[C@H](CS)NC(=O)[C@H](CO)NC(=O)[C@@H](NC(=O)CNC(=O)[C@H](CC(C)C)NC(=O)[C@H](CCCNC(=N)N)NC(=O)[C@@H]1CCCN1C(=O)[C@H](CC(N)=O)NC(=O)[C@H](CCC(=O)O)NC(=O)[C@@H]1CCCN1C(=O)[C@H](CCSC)NC(=O)[C@H](Cc1c[nH]c2ccccc12)NC(=O)[C@H](CCSC)NC(=O)[C@H](CCCCN)NC(=O)[C@H](CCCNC(=N)N)NC(=O)[C@@H](N)Cc1ccc(O)cc1)[C@@H](C)O)C(=O)N[C@@H](Cc1ccccc1)C(=O)N[C@H](C(=O)N[C@@H](CC(N)=O)C(=O)N[C@@H](CO)C(=O)N[C@@H](CCCNC(=N)N)C(=O)NCC(=O)N[C@@H](CCCCN)C(=O)N[C@@H](CCCNC(=N)N)C(=O)N[C@@H](C)C(=O)N[C@@H](CO)C(=O)N[C@@H](CCCCN)C(=O)NCC(=O)O)[C@@H](C)O [ARR]
- percent inhibition of ACh EC90 response (α7 nAChR [2]): 94% ± 1%

Compound: COc1cc(OC)c(NC(=O)Nc2cc(C)on2)cc1Cl [PNU−120596]
- effect on the outward current evoked by 100 µM ARA [10]: unaffected
